For series [1] the following is noted: cited from earlier work.
Series [2] can be described thus: Stability of the phantom solutions at 25° C. (residual absorbance). Type of series: physicochemical. As to conditions: storage at 25° C. in dark. The protocol:
(§1) Stability was measured as reduction in the absorbance at the maximum wavelength of the dye acquired using a UV/VIS spectrophotometer, denoting reduction of the dye monomer content in solution. All the results were then reported as residual percentage vs the baseline (T=0), wherein at time=0 the percentage is 100%. A decrease in absorbance is associated with the reduction of the concentration of the dye in the formulation buffer, indicating low stability and degradation of the main chromophore species.
The stability of the formulations under stressed conditions was also investigated.

Series [3] can be described thus: Stability of the phantom solutions at +2-8° C. during long-term storage (residual absorbance). The settings on record: 3 μM dye in HEPES 50 mM, pH 7.4, +2-8° C. protected from light. Format: physicochemical. The protocol: Stability was measured as reduction in the absorbance at the maximum wavelength of the dye acquired using a UV/VIS spectrophotometer, denoting reduction of the dye monomer content in solution. […] A decrease in absorbance is associated with the reduction of the concentration of the dye in the formulation buffer, indicating low stability and degradation of the main chromophore species. The stability of the formulations under long-term storage conditions was also investigated. In particular, samples of 3 μM IRDye […] and 3 μM IRDye 800BK dissolved in HEPES buffer were stored refrigerated at +2-8° C. protected from light exposure for at least 6 months. For the long-term stability study at 2-8° C., samples of.

Series [4] can be described thus: Stability of the phantom solutions at +2-8° C. in the presence of additives (residual absorbance). Format: physicochemical. The protocol: as §1
The effect of the presence of an additive on the stability of the formulations of the invention has been also investigated.
The preparation of the above buffers is described below:
50 mM HEPES (pH 7.4)+0.04% Tween 20: to prepare 100 mL of buffering solution, 1.19 g of HEPES were dissolved in 80 mL of water; 40 μL of Tween 20 were added and the pH was adjusted to 7.4 with 0.1 M HCl. The buffering solution was then brought to 100 mL volume with water and filtered on 0.22 μm membrane in sterile conditions.
50 mM HEPES (PH 7.4)+0.02% Sodium Azide: to prepare 100 mL of buffering solution, 1.19 g of HEPES and 20 mg of Sodium Azide were dissolved in 80 mL of water and the pH was adjusted to 7.4 with 0.1 M HCl. The buffering solution was then brought to 100 mL volume with water and filtered on 0.22 μm membrane in sterile conditions.
10 mM HEPES (PH 7.0)+10% EtOH: to prepare 100 mL of buffering solution, 0.24 g of HEPES were dissolved in 80 mL of water and the pH was adjusted to 7.0 with 0.1 M HCl.
Then, 10 mL of 100% Ethanol were added. The buffering solution was then brought to 100 mL volume with water and filtered on 0.22 μm membrane in sterile conditions.
Analogous solutions were prepared with the same procedure for MOPS, BES and TRICINE buffers.

Series [5] can be described thus: Stability of the phantom solutions at +2-8° C. (residual absorbance, UV/VIS). Format: physicochemical. The settings on record: +2-8° C. Here is the method: Several stability studies were performed to evaluate the effect of different buffers, additives such as excipients or preservatives, and storage conditions on the dye formulation. In particular the stability of the formulations after storage at +2-8° C. in a refrigerator was firstly investigated.
as §1
In the Tables below the residual absorbance of different dyes, i.e. […] and S0456, in some representative organic buffering solutions is reported after storage of the formulations at +2-8° C.

As to `O=S(=O)(O)CCN(CCO)CCO` [BES, 2-[bis(2-hydroxyethyl)amino]ethanesulfonic acid], in series [1], the “pKa (20° C.)” value is reported as 7.2.

For `CC1(C)C(=CC=C2CCCC(C=CC3=[N+](CCCCCC(=O)[O-])c4ccc(S(=O)(=O)[O-])cc4C3(C)C)=C2Oc2ccc(S(=O)(=O)[O-])cc2)N(CCCCS(=O)(=O)[O-])c2ccc(S(=O)(=O)[O-])cc21.[Na+].[Na+].[Na+].[Na+]` [IRDye 800CW], the Residual absorbance percentage in series [2] (3 μM dye in HEPES (50 mM), 1 week) turned out to be 100.9%; in series [2] (3 μM dye in HEPES (50 mM), 2 weeks), 98.4%; in series [2] (3 μM dye in MOPS (50 mM), 1 week) it was 99.7%; in series [2] (3 μM dye in MOPS (50 mM), 2 weeks), 97.3%; in series [3] (1 month), 99.3%; in series [3] (3 months) it was 97.7%. In addition, the Residual absorbance percentage in series [3] (6 months) is 96.2%; in series [4] (3 μM dye in HEPES (50 mM, pH 7.4) +0.02% sodium azide, +2-8° C., 1 week) it was 96.9%; in series [4] (3 μM dye in HEPES (50 mM, pH 7.4) +0.02% sodium azide, +2-8° C., 2 weeks), 92.4%; in series [4] (3 μM dye in HEPES (50 mM, pH 7.4) +0.02% sodium azide, +2-8° C., 4 weeks), 89.1%; in series [4] (3 μM dye in HEPES (50 mM, pH 7.4) +0.04% Tween 20, +2-8° C., 1 week), 100.5%; in series [4] (3 μM dye in HEPES (50 mM, pH 7.4) +0.04% Tween 20, +2-8° C., 2 weeks) it was 95.8%. Further, the Residual absorbance percentage was 92.4% in series [4] (3 μM dye in HEPES (50 mM, pH 7.4) +0.04% Tween 20, +2-8° C., 4 weeks); 97.7% in series [4] (3 μM dye in TRICINE (50 mM, pH 8.0) +0.02% sodium azide, +2-8° C., 1 week); 93.0% in series [4] (3 μM dye in TRICINE (50 mM, pH 8.0) +0.02% sodium azide, +2-8° C., 2 weeks); 89.8% in series [4] (3 μM dye in TRICINE (50 mM, pH 8.0) +0.02% sodium azide, +2-8° C., 4 weeks); 97.7% in series [4] (3 μM dye in TRICINE (50 mM, pH 8.0) +0.04% Tween 20, +2-8° C., 1 week); 93.0% in series [4] (3 μM dye in TRICINE (50 mM, pH 8.0) +0.04% Tween 20, +2-8° C., 2 weeks). Further, the Residual absorbance percentage is reported as 89.8% in series [4] (3 μM dye in TRICINE (50 mM, pH 8.0) +0.04% Tween 20, +2-8° C., 4 weeks); 100.9% in series [5] (3 μM dye in HEPES (50 mM, pH 7.4), 1 week (Table II)); 100.3% in series [5] (3 μM dye in HEPES (50 mM, pH 7.4), 2 weeks (Table II)); 99.3% in series [5] (3 μM dye in HEPES (50 mM, pH 7.4), 4 weeks (Table II)); 99.4% in series [5] (3 μM dye in MES (50 mM, pH 6.2), 1 week); 96.7% in series [5] (3 μM dye in MES (50 mM, pH 6.2), 2 weeks). For the same compound, the Residual absorbance percentage in series [5] (3 μM dye in MES (50 mM, pH 6.2), 4 weeks) is on record as 93.2%; in series [5] (3 μM dye in MOPS (50 mM, pH 7.0), 1 week (Table II)), 99.3%; in series [5] (3 μM dye in MOPS (50 mM, pH 7.0), 2 weeks (Table II)), 98.0%; in series [5] (3 μM dye in MOPS (50 mM, pH 7.0), 4 weeks (Table II)) it was 95.2%; in series [5] (3 μM dye in PBS (50 mM, pH 7.4), 1 week), 100%; in series [5] (3 μM dye in PBS (50 mM, pH 7.4), 2 weeks) it was 92.9%. The Residual absorbance percentage in series [5] (3 μM dye in PBS (50 mM, pH 7.4), 4 weeks) is 79.1%; in series [5] (3 μM dye in PBS (50 mM, pH 7.4), 4 weeks, listed as IRDye 8000W), “lower than 80%”; in series [5] (3 μM dye in TRICINE (50 mM, pH 8.0), 1 week (Table II)), 100.5%; in series [5] (3 μM dye in TRICINE (50 mM, pH 8.0), 2 weeks (Table II)), 99.9%; in series [5] (3 μM dye in TRICINE (50 mM, pH 8.0), 4 weeks (Table II)), 99.3%.

On to `CC1(C)C(/C=C/C2=C(Cl)C(=C/C=C3/N(CCCCS(=O)(=O)[O-])c4ccc(S(=O)(=O)[O-])cc4C3(C)C)/CCC2)=[N+](CCCCS(=O)(=O)[O-])c2ccc(S(=O)(=O)[O-])cc21.[Na+].[Na+].[Na+]` [S0456], for which the Residual absorbance percentage in series [5] (3 μM dye in HEPES (50 mM, pH 7.4), 1 week (Table III)) is reported as 99.0%; in series [5] (3 μM dye in HEPES (50 mM, pH 7.4), 2 weeks (Table III)), 98.5%; in series [5] (3 μM dye in HEPES (50 mM, pH 7.4), 4 weeks (Table III)) it was 96.9%; in series [5] (3 μM dye in MOPS (50 mM, pH 7.0), 1 week (Table III)) it was 98.8%; in series [5] (3 μM dye in MOPS (50 mM, pH 7.0), 2 weeks (Table III)) it was 98.5%; in series [5] (3 μM dye in MOPS (50 mM, pH 7.0), 4 weeks (Table III)) it was 96.1%. Besides, the Residual absorbance percentage in series [5] (3 μM dye in TRICINE (50 mM, pH 8.0), 1 week (Table III)) is 99.7%; in series [5] (3 μM dye in TRICINE (50 mM, pH 8.0), 2 weeks (Table III)), 98.7%; in series [5] (3 μM dye in TRICINE (50 mM, pH 8.0), 4 weeks (Table III)) it was 97.9%.
